Experimental data: patent publication US8586552B2, “4,6-substituted 2,5-dideoxystreptamine aminoglycoside antibiotics” (SelectX Pharmaceuticals, Inc., priority 2012, dated 2013)
Converted amounts (≈) assume the structure as drawn.

What was measured:
Type in all cases: cell-based
[1] = test system: Pseudomonas aeruginosa PR2 (clinical isolate with intermediate aminoglycoside resistance); assay: MIC against Pseudomonas aeruginosa clinical isolate PR2; settings: Pseudomonas aeruginosa resistant strain PR2
[2] = test system: Pseudomonas aeruginosa PR1 (clinical isolate with intermediate aminoglycoside resistance); assay: MIC against Pseudomonas aeruginosa clinical isolate PR1; settings: Pseudomonas aeruginosa resistant strain PR1
[3] = test system: fifty resistant contemporary clinical isolates of Acinetobacter baumannii; assay: MIC90 against panel of resistant clinical isolates of Acinetobacter baumannii
Source text: As in the case of Pseudomonas aeruginosa and Klebsiella pneumoniae, we considered whether the SAR observed against select Acinetobacter baumannii strains 1, 2 or 3 was indicative of general potency. […] Using this stringent Acinetobacter baumannii panel, we tested a subset of compounds of the invention.

[4] = test system: Klebsiella pneumoniae KR3 (clinical isolate possessing high-level aminoglycoside resistance); assay: MIC against Klebsiella pneumoniae clinical isolate KR3; settings: Klebsiella pneumonia KR3; in µg/mL
Source text: Klebsiella pneumoniae (Kpn) and Escherichia coli (Eco) are gram-negative (like Pae), enteric pathogens with increasing clinical relevance. Many clinical isolates of Kpn and Eco harbor extended-spectrum beta-lactamases and are no longer sensitive to most beta-lactam antibiotics. We acquired clinical isolates of Klebsiella pneumoniae and Escherichia coli (Micromyx LLC, Kalamazoo, Mich.) and used this panel to test compounds for anti-enteric activity.

[5] = test system: Acinetobacter baumannii AB1; assay: MIC against Acinetobacter baumannii clinical isolate AB1
Source text: (§1) Acinetobacter baumannii is another clinically important and very challenging gram negative pathogen. Members of the Acinetobacter genus, including baumannii, have a remarkable ability to upregulate and acquire resistance determinants. Coupled with its ability to survive for prolonged periods in a hospital environment, A. baumannii is an emerging threat for healthcare institutions globally. We acquired clinical isolates of Acinetobacter baumannii and used this panel to test compounds for anti-Acinetobacter activity. We first tested reference AGs against our panel of Aba strains.

[6] = test system: Acinetobacter baumannii AB2; assay: MIC against Acinetobacter baumannii clinical isolate AB2
Source text: as §1

[7] = test system: Pseudomonas aeruginosa PR3 (high-level, efflux-mediated, pan-aminoglycoside resistance); assay: MIC against Pseudomonas aeruginosa clinical isolate PR3; settings: Pseudomonas aeruginosa resistant strain PR3
[8] = test system: fifty resistant contemporary clinical isolates of Klebsiella pneumoniae; assay: MIC90 against panel of resistant clinical isolates of Klebsiella pneumoniae; settings: stringent panel of resistant clinical isolates, Table 5
Source text: Using this stringent Klebsiella pneumoniae panel, we tested a subset of compounds of the invention.

NCCCNCC1OC(OC2C(NC(=O)C(O)CCN)CC(N)C(OC3OC(CN)C(O)CC3N)C2F)C(O)C(N)C1O (centres unmarked) [SXP 2523]
MIC PR2 [1]: 0.5 mg/L (≈ 0.798 µM)
MIC PR1 [2]: 1 to 2 mg/L
MIC90 Acinetobacter baumannii [3]: 4 mg/L (≈ 6.38 µM)
MIC KR3 [4]: 1
MIC AB1 [5]: 2 to 4 mg/L
MIC AB2 [6]: 1 mg/L (≈ 1.6 µM)
MIC PR3 [7]: 4 mg/L (≈ 6.38 µM)
MIC90 Klebsiella pneumonia [8]: 1 mg/L (≈ 1.6 µM)
